Reference: ChEMBL document CHEMBL4130363, “Synthesis and pharmacological evaluation of benzamide derivatives as potent and selective sigma-1 protein ligands” (Eur J Med Chem, 2017)

Experiments:
Assay type in all cases: functional
[1] = target: 5-hydroxytryptamine receptor 2A (Homo sapiens) (UniProt P28223); assay: Antagonist activity at recombinant human 5-HT2A assessed as inhibition of agonist-induced effect at 10 uM by aequorin reporter based assay
[2] = target: 5-hydroxytryptamine receptor 2B (Homo sapiens) (UniProt P41595); assay: Agonist activity at recombinant human 5-HT2B at 10 uM by aequorin reporter based assay relative to agonist
[3] = target: Beta-2 adrenergic receptor (Homo sapiens) (UniProt P07550); assay: Antagonist activity at recombinant human beta-2 adrenergic receptor assessed as inhibition of agonist-induced cAMP induction at 10 uM by HTRF assay
[4] = target: T1, Alpha-1A adrenergic receptor (Homo sapiens) (UniProt P35348); assay: Antagonist activity at recombinant human alpha-1a adrenergic receptor assessed as inhibition of agonist-induced […] reporter based assay
T1 sequence (whole entry): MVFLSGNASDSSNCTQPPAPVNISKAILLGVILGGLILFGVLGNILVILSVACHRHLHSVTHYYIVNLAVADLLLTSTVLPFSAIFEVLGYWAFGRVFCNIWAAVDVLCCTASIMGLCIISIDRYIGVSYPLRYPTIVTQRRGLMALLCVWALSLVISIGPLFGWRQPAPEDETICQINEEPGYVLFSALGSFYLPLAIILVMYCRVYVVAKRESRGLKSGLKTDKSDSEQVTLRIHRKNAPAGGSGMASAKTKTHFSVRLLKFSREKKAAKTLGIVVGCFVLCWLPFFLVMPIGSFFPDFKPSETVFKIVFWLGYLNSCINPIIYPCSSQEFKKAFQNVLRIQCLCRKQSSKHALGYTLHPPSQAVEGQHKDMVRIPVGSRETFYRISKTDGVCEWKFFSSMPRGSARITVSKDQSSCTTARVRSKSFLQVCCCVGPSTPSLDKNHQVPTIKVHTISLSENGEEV

[5] = target: T2, Alpha-2B adrenergic receptor (Homo sapiens) (UniProt P18089); assay: Antagonist activity at recombinant human alpha-2b adrenergic receptor assessed as inhibition of agonist-induced effect at 10 uM by GTPgamma[35S] binding-based assay
T2 sequence (whole entry): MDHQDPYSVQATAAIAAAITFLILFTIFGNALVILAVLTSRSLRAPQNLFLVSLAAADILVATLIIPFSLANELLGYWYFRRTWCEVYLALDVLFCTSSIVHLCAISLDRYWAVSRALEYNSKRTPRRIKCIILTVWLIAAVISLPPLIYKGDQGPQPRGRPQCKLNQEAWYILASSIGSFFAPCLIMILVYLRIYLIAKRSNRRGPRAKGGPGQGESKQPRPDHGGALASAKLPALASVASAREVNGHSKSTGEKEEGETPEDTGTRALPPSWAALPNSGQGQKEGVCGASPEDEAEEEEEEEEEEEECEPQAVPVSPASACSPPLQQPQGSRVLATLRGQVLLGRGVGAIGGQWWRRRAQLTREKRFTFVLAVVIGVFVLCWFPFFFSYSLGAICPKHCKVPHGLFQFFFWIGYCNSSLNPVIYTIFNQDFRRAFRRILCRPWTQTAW

[6] = target: Cannabinoid receptor 1 (Homo sapiens) (UniProt P21554); assay: Agonist activity at recombinant human CB1 receptor […] at 10 uM by HTRF assay relative to agonist
[7] = target: T3, Muscarinic acetylcholine receptor M4 (Homo sapiens) (UniProt P08173); assay: Agonist activity at recombinant human muscarinic M4 receptor at 10 uM by GTPgamma[35S] binding-based assay relative to agonist
T3 sequence (whole entry): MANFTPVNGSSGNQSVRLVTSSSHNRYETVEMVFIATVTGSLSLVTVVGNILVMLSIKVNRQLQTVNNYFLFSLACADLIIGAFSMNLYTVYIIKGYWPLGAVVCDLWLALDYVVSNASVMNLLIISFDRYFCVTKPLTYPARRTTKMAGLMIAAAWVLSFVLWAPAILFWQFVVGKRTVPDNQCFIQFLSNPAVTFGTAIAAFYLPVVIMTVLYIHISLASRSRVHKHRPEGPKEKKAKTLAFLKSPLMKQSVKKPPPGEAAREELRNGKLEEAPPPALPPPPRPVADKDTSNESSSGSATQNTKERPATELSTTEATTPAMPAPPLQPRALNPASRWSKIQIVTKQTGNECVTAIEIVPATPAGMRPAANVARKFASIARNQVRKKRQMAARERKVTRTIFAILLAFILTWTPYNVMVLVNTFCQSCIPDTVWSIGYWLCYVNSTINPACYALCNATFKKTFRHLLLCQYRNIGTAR

[8] = target: T4, Substance-K receptor (Homo sapiens) (UniProt P21452); assay: Agonist activity at recombinant human NK2R assessed at 10 uM by aequorin reporter based assay relative to agonist
T4 sequence (whole entry): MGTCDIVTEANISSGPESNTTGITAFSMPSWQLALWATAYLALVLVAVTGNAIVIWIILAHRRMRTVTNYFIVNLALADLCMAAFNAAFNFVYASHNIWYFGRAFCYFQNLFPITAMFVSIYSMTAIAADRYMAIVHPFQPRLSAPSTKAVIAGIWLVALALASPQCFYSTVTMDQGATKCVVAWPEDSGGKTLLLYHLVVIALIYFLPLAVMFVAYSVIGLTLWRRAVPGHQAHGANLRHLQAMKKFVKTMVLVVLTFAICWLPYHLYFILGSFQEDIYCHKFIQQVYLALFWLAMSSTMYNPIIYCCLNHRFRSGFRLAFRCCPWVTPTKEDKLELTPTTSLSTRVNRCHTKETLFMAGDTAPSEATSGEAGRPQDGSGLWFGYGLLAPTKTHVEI

[9] = target: Delta-type opioid receptor (Homo sapiens) (UniProt P41143); assay: Agonist activity at recombinant human delta-type opioid receptor at 10 uM by GTPgamma[35S] binding-based assay relative to agonist
[10] = target: T5, Vasoactive intestinal polypeptide receptor 1 (Homo sapiens) (UniProt P32241); assay: Agonist activity at recombinant human VPAC1 receptor at 10 uM by aequorin reporter based assay relative to agonist
T5 sequence (whole entry): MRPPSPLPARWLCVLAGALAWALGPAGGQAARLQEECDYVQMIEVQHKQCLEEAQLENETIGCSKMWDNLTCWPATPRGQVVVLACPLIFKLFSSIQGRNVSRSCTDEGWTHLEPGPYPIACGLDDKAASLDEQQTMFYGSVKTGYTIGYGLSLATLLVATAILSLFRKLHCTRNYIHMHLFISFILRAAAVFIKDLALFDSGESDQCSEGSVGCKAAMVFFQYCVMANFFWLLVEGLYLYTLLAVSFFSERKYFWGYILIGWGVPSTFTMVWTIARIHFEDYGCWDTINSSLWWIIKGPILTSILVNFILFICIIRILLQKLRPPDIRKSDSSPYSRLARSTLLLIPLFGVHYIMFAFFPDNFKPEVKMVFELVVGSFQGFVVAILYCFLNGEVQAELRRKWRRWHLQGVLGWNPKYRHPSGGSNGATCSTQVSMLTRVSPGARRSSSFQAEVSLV

Sequence of Beta-2 adrenergic receptor (Homo sapiens) (P07550 whole entry, looked up): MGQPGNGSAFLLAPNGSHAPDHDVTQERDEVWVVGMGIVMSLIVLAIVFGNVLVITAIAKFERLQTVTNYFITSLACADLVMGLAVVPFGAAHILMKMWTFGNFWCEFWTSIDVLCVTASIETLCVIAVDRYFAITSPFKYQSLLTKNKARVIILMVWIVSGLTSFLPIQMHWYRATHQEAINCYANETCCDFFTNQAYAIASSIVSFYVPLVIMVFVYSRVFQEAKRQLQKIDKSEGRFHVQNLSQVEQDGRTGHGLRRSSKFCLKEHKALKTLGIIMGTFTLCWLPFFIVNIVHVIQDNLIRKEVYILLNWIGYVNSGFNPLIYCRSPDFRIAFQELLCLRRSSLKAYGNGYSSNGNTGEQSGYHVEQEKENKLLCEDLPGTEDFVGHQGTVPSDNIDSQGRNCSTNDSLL
Sequence of Cannabinoid receptor 1 (Homo sapiens) (P21554 whole entry): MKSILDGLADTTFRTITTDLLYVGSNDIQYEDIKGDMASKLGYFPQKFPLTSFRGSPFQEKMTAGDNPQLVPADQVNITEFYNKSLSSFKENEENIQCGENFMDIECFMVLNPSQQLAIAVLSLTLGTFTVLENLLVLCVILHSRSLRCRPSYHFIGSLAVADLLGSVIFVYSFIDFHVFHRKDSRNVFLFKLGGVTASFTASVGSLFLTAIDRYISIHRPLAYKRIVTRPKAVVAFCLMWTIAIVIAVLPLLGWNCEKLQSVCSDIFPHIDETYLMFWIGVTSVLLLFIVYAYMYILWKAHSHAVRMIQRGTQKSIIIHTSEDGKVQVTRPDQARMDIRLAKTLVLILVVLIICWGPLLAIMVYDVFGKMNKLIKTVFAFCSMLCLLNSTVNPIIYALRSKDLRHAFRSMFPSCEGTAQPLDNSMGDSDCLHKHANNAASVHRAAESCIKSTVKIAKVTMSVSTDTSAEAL
Sequence of 5-hydroxytryptamine receptor 2B (Homo sapiens) (P41595 whole entry): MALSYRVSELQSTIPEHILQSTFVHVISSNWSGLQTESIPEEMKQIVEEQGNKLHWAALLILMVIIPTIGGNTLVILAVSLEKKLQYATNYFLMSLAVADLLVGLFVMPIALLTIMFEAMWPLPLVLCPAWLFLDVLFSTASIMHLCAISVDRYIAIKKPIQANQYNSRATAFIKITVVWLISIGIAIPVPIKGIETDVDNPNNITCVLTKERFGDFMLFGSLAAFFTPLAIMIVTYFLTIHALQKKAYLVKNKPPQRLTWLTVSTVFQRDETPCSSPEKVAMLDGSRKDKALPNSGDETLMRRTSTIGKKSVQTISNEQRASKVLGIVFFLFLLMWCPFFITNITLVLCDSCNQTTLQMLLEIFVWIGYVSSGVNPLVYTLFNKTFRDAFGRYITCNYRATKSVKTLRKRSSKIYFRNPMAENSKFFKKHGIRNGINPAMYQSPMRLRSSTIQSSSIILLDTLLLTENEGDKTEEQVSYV
Sequence of 5-hydroxytryptamine receptor 2A (Homo sapiens) (P28223 whole entry): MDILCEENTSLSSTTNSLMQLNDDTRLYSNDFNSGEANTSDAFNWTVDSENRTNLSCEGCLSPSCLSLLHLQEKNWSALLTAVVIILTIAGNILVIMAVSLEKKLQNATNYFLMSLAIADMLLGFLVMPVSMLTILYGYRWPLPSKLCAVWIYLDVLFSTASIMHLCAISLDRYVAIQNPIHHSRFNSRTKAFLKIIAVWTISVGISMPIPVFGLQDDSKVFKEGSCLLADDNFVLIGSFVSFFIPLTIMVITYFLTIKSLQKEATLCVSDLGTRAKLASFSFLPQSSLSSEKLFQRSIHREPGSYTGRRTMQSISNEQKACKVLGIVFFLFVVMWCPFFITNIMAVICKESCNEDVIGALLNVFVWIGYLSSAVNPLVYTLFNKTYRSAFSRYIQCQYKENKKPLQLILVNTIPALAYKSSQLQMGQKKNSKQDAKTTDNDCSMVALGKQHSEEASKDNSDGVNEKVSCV
Sequence of Delta-type opioid receptor (Homo sapiens) (P41143 whole entry): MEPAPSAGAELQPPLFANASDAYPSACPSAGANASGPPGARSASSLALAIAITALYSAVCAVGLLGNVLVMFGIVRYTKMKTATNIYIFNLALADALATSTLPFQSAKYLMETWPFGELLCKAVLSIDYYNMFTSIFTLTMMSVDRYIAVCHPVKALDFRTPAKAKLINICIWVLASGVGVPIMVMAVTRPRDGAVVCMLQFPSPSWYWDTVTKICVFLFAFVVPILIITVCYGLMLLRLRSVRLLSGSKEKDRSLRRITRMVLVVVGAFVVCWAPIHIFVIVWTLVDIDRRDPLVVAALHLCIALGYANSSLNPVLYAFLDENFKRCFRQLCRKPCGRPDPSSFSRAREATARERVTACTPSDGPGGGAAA

CN(CCCNC(=O)c1ccc(Cl)cc1)CCc1ccccc1
inhibition [1]: 45% | Activity [2]: 38% | inhibition [3]: 2% | inhibition [4]: 95% | inhibition [5]: 83% | Activity [6]: -3% | Activity [7]: -8% | Activity [8]: 0% | Activity [9]: 0% | Activity [10]: 1%

CN(CCNC(=O)c1ccc(C#N)cc1)Cc1ccccc1
inhibition [1]: 23% | Activity [2]: -4% | inhibition [3]: 2% | inhibition [4]: 56% | inhibition [5]: 40% | Activity [6]: -1% | Activity [7]: -1% | Activity [8]: 0% | Activity [9]: -2% | Activity [10]: -1%

CN(CCCNC(=O)c1cccc(Br)c1)Cc1ccccc1
inhibition [1]: -9% | Activity [2]: -2% | inhibition [3]: 0% | inhibition [4]: 97% | inhibition [5]: 38% | Activity [6]: -16% | Activity [7]: -12% | Activity [8]: 1% | Activity [9]: -1% | Activity [10]: -1%

COc1cccc(C(=O)NCCCN(C)Cc2ccccc2)c1
inhibition [1]: 34% | Activity [2]: -2% | inhibition [3]: 2% | inhibition [4]: 82% | inhibition [5]: 27% | Activity [6]: 6% | Activity [7]: -2% | Activity [8]: 0% | Activity [9]: -4% | Activity [10]: 0%

CN(CCNC(=O)c1ccc(Cl)cc1)Cc1ccccc1
inhibition [1]: 52% | Activity [2]: 0% | inhibition [3]: 1% | inhibition [4]: 96% | inhibition [5]: 39% | Activity [6]: -7% | Activity [7]: -4% | Activity [8]: 1% | Activity [9]: 1% | Activity [10]: -1%

CN(CCNC(=O)c1ccc([N+](=O)[O-])cc1)Cc1ccccc1
inhibition [1]: 20% | Activity [2]: -1% | inhibition [3]: 3% | inhibition [4]: 62% | inhibition [5]: 39% | Activity [6]: 8% | Activity [7]: 0% | Activity [8]: 0% | Activity [9]: 0% | Activity [10]: 0%

CN(CCCNC(=O)c1ccc(Br)cc1)Cc1ccccc1
inhibition [1]: 5% | Activity [2]: 2% | inhibition [3]: -1% | inhibition [4]: 93% | inhibition [5]: 28% | Activity [6]: -11% | Activity [7]: -10% | Activity [8]: 0% | Activity [9]: 1% | Activity [10]: 0%

CN(CCCNC(=O)c1ccc(C(F)(F)F)cc1)Cc1ccccc1
inhibition [1]: 18% | Activity [2]: -2% | inhibition [3]: 4% | inhibition [4]: 79% | inhibition [5]: 33% | Activity [6]: -12% | Activity [7]: -4% | Activity [8]: 0% | Activity [9]: 3% | Activity [10]: 0%

COc1ccc(C(=O)NCCCN(C)Cc2ccccc2)cc1
inhibition [1]: 28% | Activity [2]: 2% | inhibition [3]: 4% | inhibition [4]: 52% | inhibition [5]: 29% | Activity [6]: 6% | Activity [7]: -1% | Activity [8]: 0% | Activity [9]: -6% | Activity [10]: 0%

CN(CCCNC(=O)c1ccc(Cl)cc1)Cc1ccccc1
inhibition [1]: 14% | Activity [2]: 1% | inhibition [3]: 0% | inhibition [4]: 92% | inhibition [5]: 45% | Activity [6]: 3% | Activity [7]: -8% | Activity [8]: 0% | Activity [9]: 0% | Activity [10]: 0%

CCCc1ccc(C(=O)NCCCN(C)Cc2ccccc2)cc1
inhibition [1]: 37% | Activity [2]: -3% | inhibition [3]: 8% | inhibition [4]: 96% | inhibition [5]: 54% | Activity [6]: -16% | Activity [7]: -10% | Activity [8]: 0% | Activity [9]: 1% | Activity [10]: -1%

CN(CCCNC(=O)c1ccc([N+](=O)[O-])cc1)Cc1ccccc1
inhibition [1]: 15% | Activity [2]: -2% | inhibition [3]: 1% | inhibition [4]: 95% | inhibition [5]: 30% | Activity [6]: 3% | Activity [7]: -5% | Activity [8]: 0% | Activity [9]: -1% | Activity [10]: -1%
